Earlier results in patent publication US20200316037A1, “COMPOSITIONS AND METHODS FOR TREATING NEOPLASIA” (THE ANGIOGENESIS FOUNDATION, priority 2017, published 2020).
Read-outs that look alike come from different tables or passages of the source.

Legend:
[1] = for Undesirable Local Reactions (combined stinging, burning, itching, or irritation/dermatitis/rash): monotherapy at normal concentration and standard dose frequency; for Undesirable Local Reactions (combined itching, burning, bleeding, stinging, pain/soreness, tenderness, irritation): monotherapy
BCC = conditions: imiquimod open-label clinical study N=162
[2] = tested on: superficial Basal Cell Carcinoma (sBCC); conditions: two double-blind vehicle-controlled studies; 5x/week x 6 weeks

In the case of `C=C1/C(=C\C=C2/CCC[C@]3(C)[C@@H]([C@H](C)/C=C/[C@@H](O)C4CC4)CC[C@@H]23)C[C@@H](O)C[C@@H]1O` [Calcipotriene 0.005%, Calcipotriene], the “Undesirable Local Reactions (combined stinging, burning, itching, or irritation/dermatitis/rash)” value [1] is listed as 13-45%.

For `CCCCC(=O)O[C@]1(C(=O)CO)CC[C@H]2[C@@H]3CCC4=CC(=O)CC[C@]4(C)[C@H]3[C@@H](O)C[C@@]21C` [Hydrocortisone valerate 0.2%, Hydrocortisone valerate], the “Undesirable Local Reactions (combined stinging, burning, itching, or irritation/dermatitis/rash)” value [1] is listed as 7%.

For `CC(C)Cn1cnc2c(N)nc3ccccc3c21` [Imiquimod 5%, Imiquimod], the “Recurrence Rate of BCC” value (BCC; Month 0) is listed as 10%, the “Recurrence Rate of BCC” value (BCC; Month 3) is listed as 13% and the “Recurrence Rate of BCC” value (BCC; Month 6) is listed as 15%. The “Recurrence Rate of BCC” value (BCC; Month 12) was 16%, the “Recurrence Rate of BCC” value (BCC; Month 24) was 21% and the “Recurrence Rate of BCC” value (BCC; Post-treatment) was 0%. The sBCC clearance [2] was 75%, the “Undesirable Local Reactions (combined itching, burning, bleeding, stinging, pain/soreness, tenderness, irritation)” value ([1]; 2x/week study) was 39% and the “Undesirable Local Reactions (combined itching, burning, bleeding, stinging, pain/soreness, tenderness, irritation)” value ([1]; 3x/week study) was 63%. The “Undesirable Local Reactions (combined itching, burning, bleeding, stinging, pain/soreness, tenderness, irritation)” value ([1]; 5x/week study) was 28% and the Incidence of inflammation ([1]; monotherapy per package label, imiquimod clinical studies) was no more than 97%.

In the case of `CC1=C(/C=C/C(C)=C/C=C/C(C)=C/C(=O)O)C(C)(C)CCC1` [Tretinoin 0.1%, Tretinoin], the “Undesirable Local Reactions (combined stinging, burning, itching, or irritation/dermatitis/rash)” value [1] is given as 15%.
